Laboratory results published in article PMC12693327, “SERAAK2 as a Serotonin Receptor Ligand: Structural and Pharmacological In Vitro and In Vivo Evaluation” (Molecules, 2025).
“Also recorded” adds a separate entry of the source.

Tests used:
5-HT1A receptor = target: 5-HT1A receptor; set-up: method as in PMID 38619283; conditions: cited from earlier work
mice [1] = assay: Spontaneous locomotor activity; assay type: in vivo; conditions: 60 min before test
Experimental: (§1) The investigated compound (SER2AAK2) was bought from Enamine (purity over 95%) and in all tests was administered intraperitoneally (i.p.), spread in a drop of Tween 80, and diluted with an aqueous solution of 0.5% methylcellulose (tylose) and injected 60 min before the tests in a volume of 10 mL/kg. Control groups received tylose injections of the same volume and via the same route of administration.
Locomotor activity of the mice was assessed using the Opto-Varimex-4 Auto-Track system (Columbus Instruments, OH, USA). Each mouse was placed individually in a testing cage for 25 min—5 min for acclimatization, followed by 20 min of activity recording. (6a) The total distance traveled (in centimeters) was measured. Cages were cleaned with 10% ethanol between sessions.

mice [2] = assay: Passive avoidance (PA) task, memory consolidation; assay type: in vivo; conditions: 7.5 mg/kg, retention phase, vs vehicle control
Experimental: as §1
The passive avoidance (PA) task measures a long-term memory, as it was reported by Venault et al.. The PA apparatus consists of a two-compartment acrylic box, one illuminated with fluorescent light (8 W) (10 cm × 13 cm × 15 cm) and another darkened (25 cm × 20 cm × 15 cm), connected by a guillotine door. Entrance of the animal to the darkened box was punished by an electric foot shock (0.15 mA for 2 s). The PA procedure was previously described. In particular, on the first day of the experiment [i.e., training (pre-test)], mice were placed individually into the illuminated compartment and allowed to explore this box. […] The latency time for entering the darkened compartment was recorded (TL1). […] The results were expressed as the latency index (LI), calculated by the following formula: TL1−TL2/TL1 where TL1 is the time needed to move to the dark compartment during a training session and TL2 is the time needed to re-enter the dark compartment, measured 24 h after TL1 (retention).

mice [3] = assay: Motor coordination, chimney test; assay type: in vivo; conditions: 7.5 mg/kg i.p., 60 min before test, similar to control
Experimental: as §1
The effects of the SER2AAK2 compound were also measured in the rotarod and chimney tests. In the rotarod test, mice were evaluated for their ability to maintain balance on a constantly rotating rod (18 rpm) for 1 min. The chimney test involved placing a mouse in a horizontal polymer tube (3 cm diameter, 25 cm length). Once the mouse reached the far end, the tube was positioned vertically, requiring the animal to climb backwards to exit. Right motor coordination was defined as exiting the chimney within 60 s. Prior to testing, mice underwent a 3-day training. Only those animals that were able to stay on the rotating rod or leave the chimney within the required time were included in the study.

[4] = target: serotonin 5-HT2A receptor; set-up: method as in PMID 38619283; conditions: cited from earlier work
[5] = PAMPA membrane permeability; assay type: in vitro ADME; conditions: 100 µM in PBS pH 7.4, 5 h
Experimental: In this study, PAMPA was employed to evaluate the passive diffusion of SERAAK2 through a lipid-infused artificial membrane.
The membrane permeability assay was conducted employing the pre-coated PAMPA Plate System Gentest from Corning (Tewksbury, MA, USA), following the manufacturer’s provided instructions. SERAAK2, along with reference compounds, were prepared in PBS buffer at a pH of 7.4 to reach a final concentration of 100 µM, and these solutions were loaded onto the donor plate of the 96-well system. […] The permeability coefficient (Pe, expressed in cm/s) was subsequently derived by applying the calculation formula supplied by the manufacturer of the PAMPA system.

CYP2D6 = CYP2D6 (Homo sapiens, UniProt P10635); assay: CYP2D6 luminescent assay (Glo kit)
Experimental: The inhibitory potential of the compound against the CYP2D6 isoform was evaluated employing a methodology analogous to the CYP3A4 assay, albeit with a different set of reference compounds.
The effect of SERAAK2 on the activity of the cytochrome P450 isoforms CYP3A4 and CYP2D6 was tested using commercial luminescence assays (Glo kits bought from Promega, Medison, WI, USA). The experiment was performed twice with triplicate samples, following the manufacturer’s guidelines and established procedures.

CYP2D6, sequence (P10635 whole entry, canonical isoform): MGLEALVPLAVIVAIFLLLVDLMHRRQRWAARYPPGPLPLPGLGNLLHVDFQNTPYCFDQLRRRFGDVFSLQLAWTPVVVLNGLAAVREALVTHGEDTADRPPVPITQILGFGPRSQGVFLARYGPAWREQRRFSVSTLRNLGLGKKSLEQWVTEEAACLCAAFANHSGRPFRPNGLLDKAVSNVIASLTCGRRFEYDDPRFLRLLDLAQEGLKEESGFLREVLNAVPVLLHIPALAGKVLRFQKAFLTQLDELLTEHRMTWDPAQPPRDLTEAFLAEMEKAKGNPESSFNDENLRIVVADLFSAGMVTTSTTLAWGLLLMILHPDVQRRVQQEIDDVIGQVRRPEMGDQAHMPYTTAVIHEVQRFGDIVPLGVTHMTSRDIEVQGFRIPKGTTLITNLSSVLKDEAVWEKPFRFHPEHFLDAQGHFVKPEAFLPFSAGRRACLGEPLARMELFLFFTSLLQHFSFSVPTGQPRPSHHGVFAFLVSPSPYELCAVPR

time to leave the chimney (mice [3]): about 13 s
Pe ± SD [5]: 1.1 ×10⁻⁶ cm/s
Papp at 5 h, 100 µM ([5]; read-out: Pe ± SD): 1.1 ± 0.35 ×10⁻⁶ cm/s
IC50 (CYP2D6): 1 µM
inhibition at 10 µM (CYP2D6; human): 90 ± 1%
SMILES: OC(CNCCc1c[nH]c2ccccc12)COc1ccc(Oc2ccccc2)cc1 (stereo not shown) [SERAAK2]
Ki (5-HT1A receptor): 0.153 ± 0.0004 µM
Spontaneous locomotor activity (mice [1]; mice, 7.5 mg/kg i.p., 7.5 mg/kg): inactive; also recorded: no effect
Spontaneous locomotor activity (mice [1]; mice, 60, 30 and 15 mg/kg i.p., 20 min recording): statistically significant reduction in locomotor activity; also recorded: reduced activity
PA memory consolidation, latency index (mice [2]): did not significantly change the latency index; also recorded: no effect on memory consolidation
Ki [4]: 0.422 ± 0.074 µM
